The record followed here is patent publication US20240279191A1 (The General Hospital Corporation, priority 2021, published 2024).

In one assay the target is TEAD4 (Homo sapiens, UniProt Q15561). Description: Inhibition of TEAD4 auto-palmitoylation in vitro.
The target in another assay is TEAD2 (Homo sapiens, UniProt Q15562). The assay can be described thus: Inhibition of TEAD2 auto-palmitoylation in vitro.
TEAD2, sequence (Q15562 whole entry): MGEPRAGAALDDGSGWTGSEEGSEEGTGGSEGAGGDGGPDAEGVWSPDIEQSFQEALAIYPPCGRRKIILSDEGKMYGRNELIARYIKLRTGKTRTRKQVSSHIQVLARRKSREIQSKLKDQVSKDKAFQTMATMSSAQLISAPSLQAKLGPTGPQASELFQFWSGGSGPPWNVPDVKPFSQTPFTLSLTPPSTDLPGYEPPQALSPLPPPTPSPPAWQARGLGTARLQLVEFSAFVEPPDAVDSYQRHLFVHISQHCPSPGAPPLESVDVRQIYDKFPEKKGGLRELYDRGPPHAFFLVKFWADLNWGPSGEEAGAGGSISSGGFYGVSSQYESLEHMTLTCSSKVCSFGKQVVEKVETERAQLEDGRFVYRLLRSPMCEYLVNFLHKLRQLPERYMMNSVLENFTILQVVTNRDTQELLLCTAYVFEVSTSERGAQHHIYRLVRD

TEAD4, sequence (Q15561 whole entry, species assumed): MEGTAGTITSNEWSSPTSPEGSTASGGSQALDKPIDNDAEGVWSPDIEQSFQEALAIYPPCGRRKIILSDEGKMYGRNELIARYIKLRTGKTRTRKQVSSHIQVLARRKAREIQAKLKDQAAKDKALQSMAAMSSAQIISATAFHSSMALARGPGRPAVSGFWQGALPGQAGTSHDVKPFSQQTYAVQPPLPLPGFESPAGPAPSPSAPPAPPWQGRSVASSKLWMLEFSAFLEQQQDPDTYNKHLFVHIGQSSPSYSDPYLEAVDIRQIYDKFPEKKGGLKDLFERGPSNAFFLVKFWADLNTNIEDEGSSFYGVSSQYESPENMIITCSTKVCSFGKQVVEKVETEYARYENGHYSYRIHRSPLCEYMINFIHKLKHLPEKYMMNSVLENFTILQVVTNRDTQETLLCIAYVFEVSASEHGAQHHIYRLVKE

As for `O=C(Nc1ccccc1)N1CCN(C(=O)c2cccc(OCCC3CCCCC3)c2)CC1` [TM2, 4-(3-(2-cyclohexylethoxy)benzoyl)-N-phenylpiperazine-1-carboxamide], the IC50 turned out to be 38 nM against TEAD4 and 156 nM at TEAD2.
